Laboratory results reported in US20150231236A1, “METHODS FOR TREATING PATIENTS WITH HYPERCHOLESTEROLEMIA THAT IS NOT ADEQUATELY CONTROLLED BY MODERATE-DOSE STATIN THERAPY” (Regeneron Pharmaceuticals, Inc., priority 2014, published 2015).

Tested on: patients with hypercholesterolemia at high CV risk not adequately controlled with atorvastatin (20 mg or 40 mg)
Test: Example 2: randomized, double-blind trial, lipid efficacy of mAb316P add-on to atorvastatin vs EZE add-on, atorvastatin dose doubling or switch to rosuvastatin
Assay type: in vivo, human
Conditions: for LDL-C W24 % change from baseline, LS mean (SE): ITT population, treatment arm as labelled; for LDL-C W24 % change from baseline, LS mean (SE) / reduced LDL-C levels by / Proportion of Patients Reaching LDL-C goal (%): week 24; for reduced LDL-C levels by: add-on mAb316P; for Proportion of Patients Reaching LDL-C goal (%): calculated LDL-C <70 mg/dL very high risk or <100 mg/dL high risk, combined estimate
Method: The present study was a randomized, double-blind, active-comparator, parallel-group study in patients at high CV risk with non-FH or heFH who are not adequately controlled with atorvastatin (20 mg or 40 mg) with or without other lipid-modifying therapy (LMT) (excluding EZE). The study design is illustrated in FIG. 1. Patients who entered the study were taking either atorvastatin 20 mg or atorvastatin 40 mg. The former patients were randomized to 1 of 3 treatment arms (arms 1 to 3); the latter patients were randomized to 1 of 4 treatment arms (arms 4 to 7). The treatment arms are as follows:
(1) mAb316P+atorvastatin 20 mg+placebo-EZE; (2) Placebo-mAb316P+atorvastatin 40 mg+placebo-EZE; and (3) Placebo-mAb316P+atorvastatin 20 mg+EZE 10 mg.
(4) mAb316P+atorvastatin 40 mg+placebo-EZE; (5) Placebo-mAb316P+atorvastatin 80 mg+placebo-EZE; (6). Placebo-mAb316P+rosuvastatin 40 mg+placebo-EZE; and (7) Placebo-mAb316P+atorvastatin 40 mg+EZE 10 mg.
(B) a double-blind treatment period of 24 weeks. Each patient received a SC injection Q2W (mAb316P or placebo-mAb316P) and was administered (or instructed to take) 2 oral blinded medications daily (a statin [atorvastatin or rosuvastatin] and EZE or placebo-EZE). The first injection of mAb316P or placebo-mAb316P was administered at the clinical site on day 1, after study assessments were completed, and as soon as possible after the patient was randomized into the study. The patient/caregiver administered subsequent injections outside of the clinic according to the dosing schedule. On days where the clinic study visit coincided with dosing, the dose of study drugs (injectable and oral) were administered after all study assessments had been performed and all laboratory samples collected. The last dose of mAb316P or placebo-mAb316P was administered at week 22. The last dose of daily oral study drugs was administered at week 24. At week 12, based on their baseline CV risk, certain patients randomized to mAb316P in a blinded manner, had their dose increased as follows:
Each patient received a subcutaneous (SC) injection once every two weeks (Q2W) (mAb316P or placebo-mAb316P) and took 2 oral blinded medications daily (a statin [atorvastatin or rosuvastatin] and EZE or placebo-EZE).
The injectable study treatment was a single SC injection of 1 mL for a 75 mg or 150 mg dose of mAb316P or placebo-mAb316P provided in an auto-injector, administered in the abdomen, thigh, or outer area of the upper arm. The first injection of study drug was administered at the clinical site, as soon as possible after the patient was randomized into the study. The patient was monitored at the clinical site for at least 30 minutes following the first injection. The patient/caregiver administered subsequent injections outside of the clinic, according to the dosing schedule. On days where the clinic study visit coincided with dosing, the dose of study drug was administered after all study assessments have been performed and all laboratory samples collected.
The dose of mAb316P was increased, in a blinded manner, from 75 mg to 150 mg SC Q2W, starting at week 12, based on baseline CV risk in the following circumstances:
The primary efficacy endpoint was the percent change in calculated LDL-C from baseline to week 24, which is defined as: 100× (calculated LDL-C value at week 24−calculated LDL-C value at baseline)/calculated LDL-C value at baseline. The baseline calculated LDL-C value was the last LDL-C level obtained before the first double-blind study drug injection. The calculated LDL-C at week 24 will be the LDL-C level obtained within the week 24 analysis window and during the main efficacy period. The main efficacy period was defined as the time from the first double-blind study drug injection up to 21 days after the last double-blind study drug injection or up to the upper limit of the week 24 analysis window, whichever comes first.
Total-C, HDL-C, TG, ApoB, ApoA-1, and Lp (a) were directly measured by a central laboratory. […]

For `CC(C)c1c(C(=O)Nc2ccccc2)c(-c2ccccc2)c(-c2ccc(F)cc2)n1CC[C@@H](O)C[C@@H](O)CC(=O)O` [atorvastatin, reference compound], the “LDL-C W24 % change from baseline, LS mean (SE)” value (“LDL-C W24 % change … (SE)” for short) (listed as ATV 40) was −5.0%, the “LDL-C W24 % change … (SE)” value (listed as ATV 80) was −4.8% and the “Calculated LDL-C LS mean (SE), % Change from Baseline” value (Week 4, listed as ATV 40) was −9.9 (3.4) %. The “Calculated LDL-C LS mean (SE), Change from Baseline” value (Week 4, listed as ATV 40) was −12.9 (3.6), the “Calculated LDL-C LS mean (SE), Value (mg/dL)” value (Week 4, listed as ATV 40) was 88.9 (3.6) mg/dL and the “Calculated LDL-C LS mean (SE), % Change from Baseline” value (Week 4, listed as ATV 80) was −11.7 (2.7) %. The “Calculated LDL-C LS mean (SE), Change from Baseline” value (Week 4, listed as ATV 80) was −15.3 (2.9), the “Calculated LDL-C LS mean (SE), Value (mg/dL)” value (Week 4, listed as ATV 80) was 93.4 (2.9) mg/dL and the “Calculated LDL-C LS mean (SE), % Change from Baseline” value (Week 8, listed as ATV 40) was −12.6 (3.8) %. The “Calculated LDL-C LS mean (SE), Change from Baseline” value (Week 8, listed as ATV 40) was −15.1 (4.1), the “Calculated LDL-C LS mean (SE), Value (mg/dL)” value (Week 8, listed as ATV 40) was 86.7 (4.1) mg/dL and the “Calculated LDL-C LS mean (SE), % Change from Baseline” value (Week 8, listed as ATV 80) was −13.1 (3.1) %. The “Calculated LDL-C LS mean (SE), Change from Baseline” value (Week 8, listed as ATV 80) was −17.2 (3.2), the “Calculated LDL-C LS mean (SE), Value (mg/dL)” value (Week 8, listed as ATV 80) was 91.5 (3.2) mg/dL and the “Calculated LDL-C LS mean (SE), % Change from Baseline” value (Week 12, listed as ATV 40) was −8.5 (3.9) %. The “Calculated LDL-C LS mean (SE), Change from Baseline” value (Week 12, listed as ATV 40) was −11.9 (4.3), the “Calculated LDL-C LS mean (SE), Value (mg/dL)” value (Week 12, listed as ATV 40) was 89.9 (4.3) mg/dL and the “Calculated LDL-C LS mean (SE), % Change from Baseline” value (Week 12, listed as ATV 80) was −14.5 (3.2) %. The “Calculated LDL-C LS mean (SE), Change from Baseline” value (Week 12, listed as ATV 80) was −17.9 (3.4), the “Calculated LDL-C LS mean (SE), Value (mg/dL)” value (Week 12, listed as ATV 80) was 90.8 (3.4) mg/dL and the “Calculated LDL-C LS mean (SE), % Change from Baseline” value (Week 16, listed as ATV 40) was −8.2 (3.9) %. For the same compound, the “Calculated LDL-C LS mean (SE), Change from Baseline” value (Week 16, listed as ATV 40) was −10.9 (4.3), the “Calculated LDL-C LS mean (SE), Value (mg/dL)” value (Week 16, listed as ATV 40) was 90.9 (4.3) mg/dL and the “Calculated LDL-C LS mean (SE), % Change from Baseline” value (Week 16, listed as ATV 80) was −8.0 (3.4) %. For the same compound, the “Calculated LDL-C LS mean (SE), Change from Baseline” value (Week 16, listed as ATV 80) was −11.3 (3.8), the “Calculated LDL-C LS mean (SE), Value (mg/dL)” value (Week 16, listed as ATV 80) was 97.4 (3.8) mg/dL and the “Calculated LDL-C LS mean (SE), % Change from Baseline” value (Week 24, listed as ATV 40) was −5.0 (4.6) %. For the same compound, the “Calculated LDL-C LS mean (SE), Change from Baseline” value (Week 24, listed as ATV 40) was −7.9 (4.7), the “Calculated LDL-C LS mean (SE), Value (mg/dL)” value (Week 24, listed as ATV 40) was 93.9 (4.7) mg/dL and the “Calculated LDL-C LS mean (SE), % Change from Baseline” value (Week 24, listed as ATV 80) was −4.8 (4.2) %. The “Calculated LDL-C LS mean (SE), Change from Baseline” value (Week 24, listed as ATV 80) was −8.7 (4.5), the “Calculated LDL-C LS mean (SE), Value (mg/dL)” value (Week 24, listed as ATV 80) was 100.0 (4.5) mg/dL and the “reduced LDL-C levels by” value (atorvastatin 20 mg regimen, add-on ezetimibe or doubling of atorvastatin dose) was 5.0%. For the same compound, the “reduced LDL-C levels by” value (atorvastatin 40 mg regimen, add-on ezetimibe, doubling of atorvastatin dose or switch to rosuvastatin 40 mg) was 4.8%, the “Proportion of Patients Reaching LDL-C goal (%)” value (from here on “Proportion … (%)”) (listed as ATV 40) was 34.5% and the “Proportion … (%)” value (listed as ATV 80) was 15.4%.

In the case of “mAb316P + ATV 20: treatment arm: mAb316P 75/150 mg Q2W + atorvastatin 20 mg daily”, the “LDL-C W24 % change … (SE)” value is reported as −44.1%, the “Calculated LDL-C LS mean (SE), % Change from Baseline” value (Week 4) is reported as −53.3 (3.4) % and the “Calculated LDL-C LS mean (SE), Change from Baseline” value (Week 4) is reported as −55.8 (3.5). The “Calculated LDL-C LS mean (SE), Value (mg/dL)” value (Week 4) was 46.0 (3.5) mg/dL, the “Calculated LDL-C LS mean (SE), % Change from Baseline” value (Week 8) was −51.2 (3.8) % and the “Calculated LDL-C LS mean (SE), Change from Baseline” value (Week 8) was −51.4 (4.1). For the same compound, the “Calculated LDL-C LS mean (SE), Value (mg/dL)” value (Week 8) was 50.4 (4.1) mg/dL, the “Calculated LDL-C LS mean (SE), % Change from Baseline” value (Week 12) was −48.4 (3.8) % and the “Calculated LDL-C LS mean (SE), Change from Baseline” value (Week 12) was −49.0 (4.2). The “Calculated LDL-C LS mean (SE), Value (mg/dL)” value (Week 12) was 52.8 (4.2) mg/dL, the “Calculated LDL-C LS mean (SE), % Change from Baseline” value (Week 16) was −53.8 (3.9) % and the “Calculated LDL-C LS mean (SE), Change from Baseline” value (Week 16) was −54.8 (4.3). For the same compound, the “Calculated LDL-C LS mean (SE), Value (mg/dL)” value (Week 16) was 47.0 (4.3) mg/dL, the “Calculated LDL-C LS mean (SE), % Change from Baseline” value (Week 24) was −44.1 (4.5) % and the “Calculated LDL-C LS mean (SE), Change from Baseline” value (Week 24) was −47.5 (4.7). For the same compound, the “Calculated LDL-C LS mean (SE), Value (mg/dL)” value (Week 24) was 54.3 (4.7) mg/dL and the “Proportion … (%)” value was 87.2%.

For “mAb316P + ATV 40: treatment arm: mAb316P 75/150 mg Q2W + atorvastatin 40 mg daily”, the “LDL-C W24 % change … (SE)” value was −54.0%, the “Calculated LDL-C LS mean (SE), % Change from Baseline” value (Week 4) was −56.5 (2.8) % and the “Calculated LDL-C LS mean (SE), Change from Baseline” value (Week 4) was −63.2 (2.9). For the same compound, the “Calculated LDL-C LS mean (SE), Value (mg/dL)” value (Week 4) was 45.5 (2.9) mg/dL, the “Calculated LDL-C LS mean (SE), % Change from Baseline” value (Week 8) was −55.7 (3.2) % and the “Calculated LDL-C LS mean (SE), Change from Baseline” value (Week 8) was −63.4 (3.3). For the same compound, the “Calculated LDL-C LS mean (SE), Value (mg/dL)” value (Week 8) was 45.3 (3.3) mg/dL, the “Calculated LDL-C LS mean (SE), % Change from Baseline” value (Week 12) was −50.5 (3.2) % and the “Calculated LDL-C LS mean (SE), Change from Baseline” value (Week 12) was −56.9 (3.5). The “Calculated LDL-C LS mean (SE), Value (mg/dL)” value (Week 12) was 51.8 (3.5) mg/dL, the “Calculated LDL-C LS mean (SE), % Change from Baseline” value (Week 16) was −56.9 (3.5) % and the “Calculated LDL-C LS mean (SE), Change from Baseline” value (Week 16) was −64.3 (3.9). For the same compound, the “Calculated LDL-C LS mean (SE), Value (mg/dL)” value (Week 16) was 44.4 (3.9) mg/dL, the “Calculated LDL-C LS mean (SE), % Change from Baseline” value (Week 24) was −54.0 (4.3) % and the “Calculated LDL-C LS mean (SE), Change from Baseline” value (Week 24) was −62.3 (4.6). The “Calculated LDL-C LS mean (SE), Value (mg/dL)” value (Week 24) was 46.4 (4.6) mg/dL and the “Proportion … (%)” value was 82.4%.
